Assay: Stability of cephalosporin C solution without thiol on heating
Assay type: physicochemical
Conditions: aqueous cephalosporin C solution without the thiol, 80° C.

CC(=O)OCC1=C(C(=O)O)N2C(=O)C(NC(=O)CCC[C@@H](N)C(=O)O)[C@H]2SC1 (stereo partly drawn) [cephalosporin C, 3-acetoxymethyl-7-(D-5-amino-5-carboxypentan amido)-ceph-3-em-4-carboxylic acid]
time to complete degradation (β-lactam ring degradation): ≤ 40 min

From US6642020B2, “Process for preparing cephalosporin derivatives” (Bioferma Murcia S.A., priority 2001, dated 2003)
